Assay results reported in patent US7427598B2, “Post-natal administration of activity-dependent neurotrophic factor-derived polypeptides for enhancing learning and memory” (The United States of Americas as represented by the …, priority 2001, dated 2008).
Square brackets hold non-standard residues; d marks the D form. Ends that are not written are not given here.

Experiments:
[1] = Preliminary toxicology studies
[2] = rat, in vivo, inhaled or intranasal
Description: (§2) The specific activity was 50 Ci/mmol. The purity and identity of NAP was ascertained using high performance liquid chromatography (HPLC) Zorbax SB-C18 (250×4.6 mm) 5 μm, and elution with a 5-25% methanol gradient in 0.1% trifluoroacetic acid over 20 minutes and detection by UV at 220 nm and [^3H] detector β-Ram. Two and half microliter of a solution containing 1 mCi/ml were applied to each nostril of a (200-300 g) male Wistar rat. At designated time points, rats were sacrificed and tissues solubilized (100 mg in one ml Luma Solve, Lumac by., Landgraaf, Netherlands, Netherlands) at 55° C. for 12 hours. Radioactivity was determined following the addition of Optiflour (10 ml/100 mg, Packard, Groningen, Netherlands) in a beta scintillation counter.
(§3) For determination of intact NAP in the brain, cortical tissue was homogenized with phosphate buffered saline (PBS) at 4° C. (100 mg/1 ml) and the homogenate was submitted to a 10,000 g centrifugation (10 min.) at 4° C. The resulting supernatant was frozen at −80° C. and further subjected to HPLC (RP-18, Merck, 250×4 mm; 5 μm), employing a linear gradient established between 35% acetonitrile and 75% acetonitrile in water containing 0.1% trifluoroacetic acid (Gozes et al., Proc. Nati. Acad. Sci. U.S.A. 96:4143-4148 (1999)).

[3] = rat
Description: as §2, §3

[4] = tested on: neuroblastoma cell; details: buthionine sulfoximine induced; cited from earlier work
[5] = tested on: C57-B16J mice; assay: Morris water maze in male offspring after prenatal treatment of pregnant mice; format: in vivo, mouse; details: vs vehicle; for Latency to find the hidden platform, prenatal oral single peptide 40 μg: gavage on pregnancy day 8, 40 μg
Description: C57-B16J female mice (Jackson Labs) were kept under a 12 h light, 12 h dark regimen with food and water available at all times. The mice received humane animal care in compliance with the “Guideline for Care and Use of Experimental Animals.” Six week old females (21-24 grams) were mated with C57-B16J males for 4 h. The presence of a vaginal plug was considered day 0 pregnancy.
Animals were injected intraperitoneally on pregnancy day 8, or treated on pregnancy day 8 after 1 hour fast with gavage dose of ADNF polypeptides. NAP was diluted in 50 μl DMSO and diluted in filtered Dulbecco 's phosphate buffered saline (DPBS). SAL was dissolved and diluted in filtered DPBS. Control animals were treated with a vehicle (i.e., DPBS). All treatments were coded.
Delivery occurred on day 20, weaning on day 20 of life. Male offspring were eartagged with all identifying markers of coded treatments removed.
Only male mice were used for the water maze trials. Testing of mice began at 35-50 days, typically on day 38, twice daily (two trials) for 7 days.
Morris water maze test used is adapted from “repeated acquisition of a spatial navigation task in mice: Effects of spacing of trials and of unilateral middle cerebral artery occlusion” Klapdor & Van der Staay, Physiology & Behav. 63(5):903-909 (1998). A trial consists of attempting to find the hidden platform from 4 set points. Specifically, testing of mice began in the mornings, typically between 9 and 9:30. Consistent timing is important to any behavioral study. Testing of mice was performed in a random order to prevent chronological bias by the researcher. Maze was set up the day before, to allow water time to adjust to room temperature. 100-150 ml of non-toxic white tempura is added and mixed. […]
On days 2-7, mice are only given 15 seconds on the platform before the initial trial. […] The daily average escape latency is calculated and plotted along the 7 day period for test administration. […]

[6] = Biodistribution and intactness of [3H]-NAP following intranasal administration
[7] = tested on: AF64A-treated rats; assay: Probe trial (platform removed, time in platform quadrant) in rats; format: in vivo, rat; details: AF64A-treated rats given peptide intranasally vs AF64A-vehicle, 120 sec swim, p<0.001
From the text: (§1) After a week of peptide treatment, the animals were subjected to two daily tests in the water maze (as above). During the test-period, animals were also given an intranasal administration of peptide or vehicle (carrier) an hour before the daily tests. To avoid bias related to changes in motor activity in the various treatment groups, a probe trial test that assessed spatial memory was also utilized as follows. After four days of training and testing, the platform was removed and on day 5 the animals were subjected to swimming in the pool (120 sec) without the platform; in these experiments, the time spent in the quadrant of the pool where the platform used to be was recorded. Measurements were performed using the HVS video tracking system (HVS Image Ltd. Hampton, UK).

[8] = tested on: AF64A-treated rats; assay: Water maze (two daily tests, hidden platform) in AF64A cholinotoxicity rats, intranasal peptide; format: in vivo, rat; details: 1 μg peptide intranasal daily, vs AF64A-vehicle
Description: Rats were subjected to two daily tests in a water maze, including a hidden platform (Morris, R., J. Neurosci. Methods 11:47-60 (1984); Gordon et al., Neurosci. Lett. 199:1-4 (1995); Gozes et al., J Neurobiol. 33:329-342. (1997a)). Every day for the first test, both the platform and the animal were situated in a new location with regards to the pool (with the pool being immobile).
The experiment was performed as follows: the animal was positioned on the platform for 0.5 min., then placed in the water. The time required to reach the platform (indicative of learning and intact reference memory) was measured (first test). […] The time required to reach the platform in the second trial was recorded, indicative of short-term (working) memory. […]
as §1, with “During the test-period, animals were also given an intranasal administration of peptide or vehicle (carrier) an hour before the daily tests.” left out, “Measurements were performed using the HVS video tracking system (HVS Image Ltd. Hampton, UK).” left out

[9] = tested on: apolipoprotein E-deficient mice; details: injection to newborn mice, short-term memory in three-week-old pups; cited from earlier work
[10] = storage at temperatures <4° C.; cited from earlier work

## CC[C@H](C)[C@H](NC(=O)[C@H](CO)NC(=O)[C@@H](NC(=O)[C@@H]1CCCN1C(=O)[C@H](C)NC(=O)[C@@H](N)CC(N)=O)C(C)C)C(=O)N1CCC[C@H]1C(=O)N[C@@H](CCC(N)=O)C(=O)O [NAP, Asn-Ala-Pro-Val-Ser-Ile-Pro-Gln]
[1]
  Toxic effects: no toxic effects
[2]
  half-life: ~15 min
[3]
  In vivo metabolism by HPLC analysis: metabolized in vivo to multiple fragments
[3]; in vivo
  Fraction of material intact in the brain, 30 min: at least 12%
  Total material eluted from the HPLC column, cortex, 30 min: 807.8 fmole/g tissue
  Total material eluted from the HPLC column, cortex, 60 min: 1198.9 fmoles/g tissue

## CCCCS(=N)(=O)CCC(N)C(=O)O (stereo not drawn) [buthionine sulfoximine, Buthionine sulfoximine]
[4]
  Decrease in neuroblastoma cell viability: 70-90%

## D-NAP: NAP (NAPVSIPQ) made of D-amino acids, for oral administration
[5]
  Latency to find the hidden platform, prenatal oral single peptide 40 μg: trend of faster latencies

## D-SAL: SAL (SALLRSIPA) made of D-amino acids, for oral administration ([dS][dA][dL][dL][dR][dS][dI][dP][dA])
[5]
  Latency to find the hidden platform, prenatal oral single peptide 40 μg: trend of faster latencies
[5]; gavage on pregnancy day 8, 80 μg
  Latency to find the hidden platform, prenatal oral double dose 80 μg: perform similarly to the control animals

## NAP, propyl 3-3,4-[^3H] [[^3H]-NAP]
[6]; following intranasal administration
  Time of highest total radioactivity in the brain (cortex): 60 min
[6]; intranasal 22.75 pmole per rat, compared with 91 fmoles/g assumed for homogeneous distribution
  Radioactivity found (calculated as NAP per g tissue): 45 fmoles/g tissue
[6]; intranasal [3H]-NAP, thirty minutes after administration
  Organ distribution of total radioactivity: highest levels in the intestine

## SALLRSIPA [ADNF-9]
[7]
  Time spent in the quadrant of the pool where the platform was previously positioned (probe trial, day 5): significantly increased
[8]; NAP difference on fourth day of testing (p<0.041)
  Latency to reach the hidden platform, first daily test (reference memory): apparent insignificant improvement
[8]; p<0.001
  Latency to reach the hidden platform, second daily test (short-term memory): significant improvements and reduced latencies
[9]
  Amelioration/prevention of memory deficits in apolipoprotein E-deficient mice: less effective than NAP
[10]
  Biological activity of PBS solutions upon storage: lost biological activity
